Source: ChEMBL document CHEMBL4043199, “Synthesis and optimization of 4,5,6,7-tetrahydrooxazolo[4,5-c]pyridines as potent and orally-active metabotropic glutamate receptor 5 negative allosteric modulators” (Bioorg Med Chem Lett, 2017)
pIC50: −log10 of the molar value. In brackets after ≈: the same amount, converted by molar mass.

Experiments:
[1] = target: CYP2C9 (Homo sapiens, UniProt P11712); test: (§1) Inhibition of CYP2C9 in human liver microsomes using diclofenac as substrate after 10 mins by LC-MS/MS analysis; format: ADME; settings: human, liver microsomes, probe diclofenac
[2] = Metabolic stability in rat hepatic microsomes assessed as parent compound remaining at 1 uM after 30 mins in presence of NADPH by LC-MS/MS analysis relative to control; format: ADME, Microsome; settings: liver microsomes, read-out: Stability
[3] = Aqueous solubility of compound at pH 7.4; format: physicochemical; settings: aqueous medium
[4] = target: T1, CYP1A2 (Homo sapiens, UniProt P05177); test: (§2) Inhibition of CYP1A2 in human liver microsomes using phenacetin as substrate after 10 mins by LC-MS/MS analysis; format: ADME; settings: human, liver microsomes, probe phenacetin
T1 sequence (P05177 whole entry): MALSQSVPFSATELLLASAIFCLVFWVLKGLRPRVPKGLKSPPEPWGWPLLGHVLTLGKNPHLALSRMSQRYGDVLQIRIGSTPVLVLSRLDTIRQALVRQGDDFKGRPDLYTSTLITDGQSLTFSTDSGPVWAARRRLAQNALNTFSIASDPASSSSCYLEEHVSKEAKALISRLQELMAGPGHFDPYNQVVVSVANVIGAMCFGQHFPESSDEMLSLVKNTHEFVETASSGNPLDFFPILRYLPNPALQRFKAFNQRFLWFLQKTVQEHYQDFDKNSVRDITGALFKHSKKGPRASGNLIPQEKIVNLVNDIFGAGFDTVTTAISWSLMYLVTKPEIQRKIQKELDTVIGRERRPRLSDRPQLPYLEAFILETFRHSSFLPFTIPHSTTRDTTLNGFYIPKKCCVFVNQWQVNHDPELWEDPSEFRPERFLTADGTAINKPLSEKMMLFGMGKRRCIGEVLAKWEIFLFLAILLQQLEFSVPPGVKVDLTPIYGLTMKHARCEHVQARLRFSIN

[5] = tested on: P-gp; test: Substrate activity at P-gp (unknown origin) assessed as efflux ratio; format: ADME; settings: human, not told
[6] = target: T2, CYP2A6 (Homo sapiens, UniProt P11509); test: (§3) Inhibition of CYP2A6 in human liver microsomes using coumarin as substrate after 10 mins by LC-MS/MS analysis; format: ADME; settings: human, liver microsomes, probe coumarin
T2 sequence (P11509 whole entry): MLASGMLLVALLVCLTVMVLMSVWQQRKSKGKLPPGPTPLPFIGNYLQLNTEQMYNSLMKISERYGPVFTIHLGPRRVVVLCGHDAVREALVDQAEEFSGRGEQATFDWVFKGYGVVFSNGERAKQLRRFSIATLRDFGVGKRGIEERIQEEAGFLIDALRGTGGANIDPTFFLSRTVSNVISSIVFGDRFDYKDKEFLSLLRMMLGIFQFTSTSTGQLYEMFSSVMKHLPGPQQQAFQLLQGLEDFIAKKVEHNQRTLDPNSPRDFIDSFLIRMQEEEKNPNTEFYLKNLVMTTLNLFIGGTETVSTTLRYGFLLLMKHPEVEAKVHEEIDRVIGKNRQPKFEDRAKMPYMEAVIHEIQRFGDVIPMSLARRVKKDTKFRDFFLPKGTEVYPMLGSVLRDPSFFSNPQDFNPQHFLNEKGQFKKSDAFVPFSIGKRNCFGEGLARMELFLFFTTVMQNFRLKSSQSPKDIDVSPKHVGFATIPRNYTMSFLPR

[7] = Metabolic stability in human hepatic microsomes assessed as parent compound remaining at 1 uM after 30 mins in presence of NADPH by LC-MS/MS analysis relative to control; format: ADME, Microsome; settings: liver microsomes, read-out: Stability
[8] = target: CYP2C19 (Homo sapiens, UniProt P33261); test: (§4) Inhibition of CYP2C19 in human liver microsomes using (S)-mephenytoin as substrate after 10 mins by LC-MS/MS analysis; format: ADME; settings: human, liver microsomes, probe (S)-mephenytoin
[9] = target: CYP2D6 (Homo sapiens, UniProt P10635); test: (§5) Inhibition of CYP2D6 in human liver microsomes using bufuralol as substrate after 10 mins by LC-MS/MS analysis; format: ADME; settings: human, liver microsomes, probe bufuralol
[10] = target: CYP3A4 (Homo sapiens, UniProt P08684); test: (§6) Inhibition of CYP3A4 in human liver microsomes using midazolam as substrate after 10 mins by LC-MS/MS analysis; format: ADME; settings: human, liver microsomes, probe midazolam
[11] = target: T3, CYP2C8 (Homo sapiens, UniProt P10632); test: (§7) Inhibition of CYP2C8 in human liver microsomes using amodiaquine as substrate after 10 mins by LC-MS/MS analysis; format: ADME; settings: human, liver microsomes, probe amodiaquine
T3 sequence (P10632 whole entry): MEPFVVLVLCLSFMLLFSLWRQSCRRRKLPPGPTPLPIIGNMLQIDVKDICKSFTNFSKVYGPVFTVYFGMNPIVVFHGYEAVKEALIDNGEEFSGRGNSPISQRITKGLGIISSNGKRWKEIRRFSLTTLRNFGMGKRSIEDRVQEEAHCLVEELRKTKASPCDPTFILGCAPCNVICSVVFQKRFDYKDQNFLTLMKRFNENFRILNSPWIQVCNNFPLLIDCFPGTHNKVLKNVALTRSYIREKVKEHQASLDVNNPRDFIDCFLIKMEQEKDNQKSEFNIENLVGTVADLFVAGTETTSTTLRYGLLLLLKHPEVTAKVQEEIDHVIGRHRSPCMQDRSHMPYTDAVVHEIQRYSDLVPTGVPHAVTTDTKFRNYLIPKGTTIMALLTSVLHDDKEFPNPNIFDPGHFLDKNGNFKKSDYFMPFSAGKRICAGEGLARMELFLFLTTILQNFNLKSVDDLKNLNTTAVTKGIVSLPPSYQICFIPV

[12] = […] of CYP450 in human liver microsomes as substrate after 10 mins by LC-MS/MS analysis; format: ADME
[13] = target: Metabotropic glutamate receptor 5 (Homo sapiens, UniProt P41594); test: Negative allosteric modulation of human recombinant mGluR5 expressed in HEK293 cells assessed as inhibition of glutamate-induced calcium mobilization preincubated for 2 mins followed glutamate addition measured by fluorescence assay; format: functional, cell-based
[14] = tested on: Rattus norvegicus; test: Toxicity in rat at 100 mg/kg, po qd administered via gavage for 14 days; format: organism-based; settings: in vivo, 336 h
[15] = target: Cytochrome P450 2C9 (Homo sapiens, UniProt P11712); test: as §1; format: ADME
[16] = Oral bioavailability in monkey at 10 mg/kg; format: ADME, organism-based, Macaca mulatta; settings: rhesus monkey, in vivo
[17] = Volume of distribution at steady state in rat at 1 mg/kg, iv after 24 hrs; format: ADME, organism-based; settings: in vivo, read-out: Vdss
[18] = Cmax in monkey at 10 mg/kg, po; format: ADME, organism-based, Macaca mulatta; set-up: dose 10 mg/kg, route oral; settings: rhesus monkey, in vivo
[19] = Permeability of the compound at pH 7.4 by PAMPA; format: physicochemical; settings: read-out: permeability
[20] = target: T4, Cytochrome P450 1A2 (Homo sapiens, UniProt P05177); test: as §2; format: ADME
T4 sequence (P05177 whole entry): T1 sequence (P05177 whole entry)

[21] = Clearance in monkey at 0.5 mg/kg, iv after 24 hrs; format: ADME, organism-based, Macaca mulatta; settings: rhesus monkey, in vivo
[22] = target: T5, Cytochrome P450 2A6 (Homo sapiens, UniProt P11509); test: as §3; format: ADME
T5 sequence (P11509 whole entry): T2 sequence (P11509 whole entry)

[23] = Half life in rat at 1 mg/kg, iv; format: ADME, organism-based; settings: in vivo
[24] = AUC in rat at 1 mg/kg, iv; format: ADME, organism-based; settings: in vivo
[25] = Cmax in rat at 10 mg/kg, po; format: ADME, organism-based; set-up: dose 10 mg/kg, route oral; settings: in vivo
[26] = tested on: Rattus norvegicus; test: Ex vivo receptor occupancy at mGluR5 in Sprague-Dawley rat brain po administered daily for 4 days in presence of [3H]-MPEPy by liquid scintillation counting method; format: functional, organism-based
[27] = AUC in monkey at 0.5 mg/kg, iv; format: ADME, organism-based, Macaca mulatta; settings: rhesus monkey, in vivo
[28] = target: Cytochrome P450 2C19 (Homo sapiens, UniProt P33261); test: as §4; format: ADME
[29] = target: Cytochrome P450 2D6 (Homo sapiens, UniProt P10635); test: as §5; format: ADME
[30] = target: Cytochrome P450 3A4 (Homo sapiens, UniProt P08684); test: as §6; format: ADME
[31] = tested on: Rattus norvegicus; test: Oral bioavailability in rat at 10 mg/kg; format: ADME, organism-based; settings: in vivo
[32] = Half life in monkey at 0.5 mg/kg, iv; format: ADME, organism-based, Macaca mulatta; settings: rhesus monkey, in vivo
[33] = AUC in monkey at 10 mg/kg, po; format: ADME, organism-based, Macaca mulatta; settings: rhesus monkey, in vivo
[34] = target: T6, Cytochrome P450 2C8 (Homo sapiens, UniProt P10632); test: as §7; format: ADME
T6 sequence (P10632 whole entry): T3 sequence (P10632 whole entry)

[35] = AUC in rat at 10 mg/kg, po; format: ADME, organism-based; settings: in vivo
[36] = Volume of distribution at steady state in monkey at 0.5 mg/kg, iv after 24 hrs; format: ADME, organism-based, Macaca mulatta; settings: rhesus monkey, in vivo, read-out: Vdss
[37] = Clearance in rat at 1 mg/kg, iv after 24 hrs; format: ADME, organism-based; settings: in vivo
[38] = tested on: Salmonella typhimurium; test: Genotoxicity in Salmonella typhimurium by Ames test; format: toxicity; settings: salmonella enterica subsp. enterica serovar typhimurium

Chain of Metabotropic glutamate receptor 5 (P41594 whole entry): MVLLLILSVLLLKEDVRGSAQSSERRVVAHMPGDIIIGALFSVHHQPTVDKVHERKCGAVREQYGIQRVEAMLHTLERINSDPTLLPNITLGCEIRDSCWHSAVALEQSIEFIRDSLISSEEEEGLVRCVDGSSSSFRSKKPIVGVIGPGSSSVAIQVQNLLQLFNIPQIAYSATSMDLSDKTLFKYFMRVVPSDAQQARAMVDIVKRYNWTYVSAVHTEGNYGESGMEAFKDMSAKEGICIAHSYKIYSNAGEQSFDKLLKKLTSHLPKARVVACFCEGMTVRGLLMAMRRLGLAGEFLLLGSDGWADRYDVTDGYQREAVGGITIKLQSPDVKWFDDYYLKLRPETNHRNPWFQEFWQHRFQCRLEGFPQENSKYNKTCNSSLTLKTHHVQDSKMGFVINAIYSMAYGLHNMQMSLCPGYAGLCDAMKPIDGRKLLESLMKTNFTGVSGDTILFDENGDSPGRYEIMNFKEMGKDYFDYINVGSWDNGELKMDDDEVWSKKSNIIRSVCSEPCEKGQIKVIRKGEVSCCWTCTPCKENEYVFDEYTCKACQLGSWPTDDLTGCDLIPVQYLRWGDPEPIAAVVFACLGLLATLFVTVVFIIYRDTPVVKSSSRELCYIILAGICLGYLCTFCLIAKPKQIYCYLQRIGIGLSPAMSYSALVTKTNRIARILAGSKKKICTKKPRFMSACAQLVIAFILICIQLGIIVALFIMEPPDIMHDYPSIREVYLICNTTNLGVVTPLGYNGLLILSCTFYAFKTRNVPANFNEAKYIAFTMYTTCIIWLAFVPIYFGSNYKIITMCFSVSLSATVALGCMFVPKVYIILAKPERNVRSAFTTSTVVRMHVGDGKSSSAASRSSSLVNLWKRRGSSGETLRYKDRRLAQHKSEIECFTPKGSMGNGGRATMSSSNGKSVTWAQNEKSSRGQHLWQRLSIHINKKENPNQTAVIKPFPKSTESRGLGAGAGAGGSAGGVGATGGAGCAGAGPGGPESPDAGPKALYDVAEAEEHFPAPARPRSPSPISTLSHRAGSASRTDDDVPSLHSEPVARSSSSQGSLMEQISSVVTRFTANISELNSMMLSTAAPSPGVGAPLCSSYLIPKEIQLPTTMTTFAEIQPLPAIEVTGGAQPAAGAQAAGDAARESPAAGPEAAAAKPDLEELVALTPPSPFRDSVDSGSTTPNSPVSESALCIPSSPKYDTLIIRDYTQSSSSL
Chain of Cytochrome P450 2C19 (P33261 whole entry): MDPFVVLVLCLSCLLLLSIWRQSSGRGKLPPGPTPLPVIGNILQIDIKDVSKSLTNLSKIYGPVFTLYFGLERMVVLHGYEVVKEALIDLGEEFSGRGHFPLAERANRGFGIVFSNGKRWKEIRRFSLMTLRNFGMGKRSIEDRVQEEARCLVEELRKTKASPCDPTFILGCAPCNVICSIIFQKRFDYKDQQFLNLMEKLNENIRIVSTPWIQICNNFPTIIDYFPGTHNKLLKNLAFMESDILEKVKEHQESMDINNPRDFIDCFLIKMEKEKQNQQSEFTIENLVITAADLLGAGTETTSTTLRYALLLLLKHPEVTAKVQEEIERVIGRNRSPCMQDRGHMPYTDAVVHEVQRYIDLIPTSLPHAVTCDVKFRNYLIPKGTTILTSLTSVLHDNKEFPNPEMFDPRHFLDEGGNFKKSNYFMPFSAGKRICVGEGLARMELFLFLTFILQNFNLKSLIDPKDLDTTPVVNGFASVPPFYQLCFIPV
Chain of CYP2C19 (P33261 whole entry): as above
Chain of Cytochrome P450 3A4 (P08684 whole entry): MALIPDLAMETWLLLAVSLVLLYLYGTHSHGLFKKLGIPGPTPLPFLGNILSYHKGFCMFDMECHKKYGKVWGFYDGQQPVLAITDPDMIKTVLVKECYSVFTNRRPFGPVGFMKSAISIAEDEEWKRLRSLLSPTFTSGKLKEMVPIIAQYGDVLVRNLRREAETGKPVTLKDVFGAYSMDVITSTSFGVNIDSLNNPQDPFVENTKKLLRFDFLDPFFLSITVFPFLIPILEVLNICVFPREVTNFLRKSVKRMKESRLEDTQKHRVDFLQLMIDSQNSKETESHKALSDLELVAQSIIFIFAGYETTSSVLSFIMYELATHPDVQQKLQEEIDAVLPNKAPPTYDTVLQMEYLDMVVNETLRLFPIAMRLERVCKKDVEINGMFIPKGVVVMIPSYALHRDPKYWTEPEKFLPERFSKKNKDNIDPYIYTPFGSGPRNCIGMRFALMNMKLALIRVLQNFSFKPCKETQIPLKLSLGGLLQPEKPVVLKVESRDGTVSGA
Chain of CYP3A4 (P08684 whole entry): as above
Chain of CYP2C9 (P11712 whole entry): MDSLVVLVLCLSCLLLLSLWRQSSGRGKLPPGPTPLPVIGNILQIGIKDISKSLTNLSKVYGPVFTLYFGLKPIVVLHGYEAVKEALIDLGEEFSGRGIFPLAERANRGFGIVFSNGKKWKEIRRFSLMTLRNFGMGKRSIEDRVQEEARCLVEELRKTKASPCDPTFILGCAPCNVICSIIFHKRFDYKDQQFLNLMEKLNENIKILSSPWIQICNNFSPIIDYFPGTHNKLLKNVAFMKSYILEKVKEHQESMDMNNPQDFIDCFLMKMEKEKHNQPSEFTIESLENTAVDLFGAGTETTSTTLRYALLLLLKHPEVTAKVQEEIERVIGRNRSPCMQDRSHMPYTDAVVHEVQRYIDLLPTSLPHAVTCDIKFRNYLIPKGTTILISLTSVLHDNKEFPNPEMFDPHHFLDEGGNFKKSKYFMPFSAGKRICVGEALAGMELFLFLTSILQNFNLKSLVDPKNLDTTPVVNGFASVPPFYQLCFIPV
Chain of Cytochrome P450 2C9 (P11712 whole entry): as above
Chain of Cytochrome P450 2D6 (P10635 whole entry): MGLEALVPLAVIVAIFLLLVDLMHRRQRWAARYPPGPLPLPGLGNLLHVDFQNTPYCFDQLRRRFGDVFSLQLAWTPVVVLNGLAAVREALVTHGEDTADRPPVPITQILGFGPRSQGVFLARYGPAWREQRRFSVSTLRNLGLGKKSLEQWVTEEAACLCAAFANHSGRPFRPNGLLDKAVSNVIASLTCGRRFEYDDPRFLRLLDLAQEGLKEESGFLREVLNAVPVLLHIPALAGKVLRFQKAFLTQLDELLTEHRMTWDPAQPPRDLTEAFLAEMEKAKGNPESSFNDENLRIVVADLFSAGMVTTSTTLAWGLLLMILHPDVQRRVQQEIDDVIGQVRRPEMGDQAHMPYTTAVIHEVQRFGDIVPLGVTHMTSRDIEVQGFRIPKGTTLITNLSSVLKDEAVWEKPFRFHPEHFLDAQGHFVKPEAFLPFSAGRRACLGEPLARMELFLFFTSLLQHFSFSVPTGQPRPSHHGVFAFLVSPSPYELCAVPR
Chain of CYP2D6 (P10635 whole entry): as above

In the case of `O=C(c1cc(F)cc(Cl)c1)N1CCn2nc(-c3ccc(F)cn3)cc2C1`, the IC50 at 10 min [1] was > 40 µM, the remaining at 0.5 h, 1 µM [2] was > 97% and the solubility [3] was 4 µg/mL (≈ 10.7 µM). For the same compound, the IC50 at 10 min [4] was > 40 µM, the efflux ratio [5] was 1.2 and the IC50 at 10 min [6] was > 40 µM. The remaining at 0.5 h, 1 µM [7] was > 97%, the IC50 at 10 min [8] was > 40 µM and the IC50 at 10 min [9] was > 40 µM. For the same compound, the IC50 at 10 min [10] was > 40 µM, the IC50 at 10 min [11] was > 40 µM and the Activity [12] was “Not Active”.

In the case of `Cc1ccc(-c2nc3c(o2)CCN(C(=O)c2ccccc2)C3)nc1`, the pIC50 [13] was 6.75.

In the case of `Cc1cc(Cl)cc(C(=O)N2CCc3oc(-c4ccc(F)cn4)nc3C2)c1`, the remaining at 0.5 h, 1 µM [2] was > 91%, the pIC50 [13] was 7.34 and the remaining at 0.5 h, 1 µM [7] was > 91%.

For `O=C(c1cccc(F)c1)N1CCc2oc(-c3ccc(F)cn3)nc2C1`, the Activity [14] was “Non-Toxic”, the pIC50 [15] was < 4.30 and the bioavailability [16] was 114%. It also gave a remaining at 0.5 h, 1 µM [2] of 91 to 97%, a solubility [3] of 23 µg/mL (≈ 67.4 µM) and a Vd [17] of 1.6 L/kg. It also gave a Cmax [18] of 4060 ng/mL, a Papp [19] of 31.7 ×10⁻⁶ cm/s and a pIC50 [13] of 7.20. The pIC50 [20] was < 4.30, the clearance [21] was 2.8 mL/min/kg and the pIC50 [22] was < 4.30. For the same compound, the half-life [23] was 2 h, the AUC [24] was 1550 ng·h/mL and the Cmax [25] was 2070 ng/mL. The Activity [26] was “Dose-dependent effect”, the remaining at 0.5 h, 1 µM [7] was 91 to 97% and the AUC [27] was 3050 ng·h/mL. For the same compound, the pIC50 [28] was < 4.30, the pIC50 [29] was < 4.30 and the pIC50 [30] was < 4.30. It also gave an F [31] of 168%, a half-life [32] of 9.5 h and an AUC [33] of 69200 ng·h/mL. The pIC50 [34] was < 4.30, the AUC [35] was 26100 ng·h/mL and the Vd [36] was 2.2 L/kg. The Activity [12] was “Not Active”, the clearance [37] was 10.8 mL/min/kg and the Activity [38] was “Non-Toxic”.

In the case of `O=C(c1ccc(F)cc1)N1CCc2oc(-c3ccc(F)cn3)nc2C1`, the remaining at 0.5 h, 1 µM [2] was > 91%, the pIC50 [13] was 7.05 and the remaining at 0.5 h, 1 µM [7] was > 91%.

Compound `O=C(c1ccccc1)N1CCc2oc(-c3ccc(Br)cn3)nc2C1` has a pIC50 [13] of 6.76.

In the case of `N#Cc1cc(F)cc(C(=O)N2CCc3oc(-c4ccc(F)cn4)nc3C2)c1`, the remaining at 0.5 h, 1 µM [2] was > 97%, the pIC50 [13] was 6.39 and the remaining at 0.5 h, 1 µM [7] was > 97%.
